Our source for the IC50 and melting point values is patent publication US20100173910A1, “TRIAMINOPYRIMIDINE CYCLOBUTENEDIONE DERIVATIVES USED AS PHOSPHATASE CDC25 INHIBITORS” (IPDRN PHSTMS D.S.S., priority 2007, published 2010).

Bounds are passed on as bounds.

Data set [1] has as its target T1, purified recombinant CDC25C enzyme (MBP-CDC25C protein) (Homo sapiens, UniProt P30307).
T1 construct: made in house
T1 sequence (P30307 1-473): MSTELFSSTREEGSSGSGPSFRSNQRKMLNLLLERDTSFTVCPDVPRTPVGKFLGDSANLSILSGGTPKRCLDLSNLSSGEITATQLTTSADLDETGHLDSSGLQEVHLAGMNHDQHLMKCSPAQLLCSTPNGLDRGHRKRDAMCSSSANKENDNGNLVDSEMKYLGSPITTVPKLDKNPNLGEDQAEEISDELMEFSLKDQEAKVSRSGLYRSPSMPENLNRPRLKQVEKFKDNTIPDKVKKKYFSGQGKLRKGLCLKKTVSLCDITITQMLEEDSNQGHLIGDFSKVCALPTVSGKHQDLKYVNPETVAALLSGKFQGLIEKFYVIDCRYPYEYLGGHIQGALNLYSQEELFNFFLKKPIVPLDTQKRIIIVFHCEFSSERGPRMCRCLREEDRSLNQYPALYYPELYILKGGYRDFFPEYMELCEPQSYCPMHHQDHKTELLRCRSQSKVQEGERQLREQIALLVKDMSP
The experiment in a line: Phosphatase activity of the purified recombinant CDC25C enzyme (OMFP dephosphorylation, fluorescence). The class given is biochemical. As to conditions: OMFP 500 μM, 4 hours at 30° C., three independent experiments; nested upper bounds; read-out: IC50 for the phosphatase activity of the purified recombinant CDC25-C enzyme. The protocol:
i) Determination of the Phosphatase Activity of the Purified Recombinant CDC25C Enzyme:
The phosphatase activity of the MBP-CDC25C protein is evaluated through its dephosphorylation of 3-O-methylfluorescein-phosphate (OMFP) to form 3-O-methylfluorescein (OMF), determining the fluorescence of the reaction product at 475 nm. This assay can be used to identify inhibitors of the recombinant CDC25 enzyme. The preparation of the MBP-CDC25C fusion protein is described in the PCT patent application published under the number WO 01/44467.
The reaction is performed in 384-well plates in a final volume of 50 μl. The MBP-CDC25C protein (prepared as described hereinabove) is stored in the following elution buffer: 20 mM Tris-HCl pH 7.4; 250 mM NaCl; 1 mM EDTA; 1 mM dithiothreitol (DTT); 10 mM maltose. It is diluted to a concentration of 60 μM in the following reaction buffer: 50 mM Tris-HCl pH 8.2; 50 mM NaCl; 1 mM DTT; 20% glycerol. The background noise is determined using with the buffer without adding the enzyme. The products are tested at decreasing concentrations from 40 μM. The reaction is initiated by the addition of OMFP solution to a final concentration of 500 μM (prepared immediately before use from a 12.5 mM stock solution in 100% DMSO (Sigma #M2629)). After 4 hours at 30° C. in a disposable 384-well plate, the fluorescence measured at OD 475 nm is read on a Victor^2 plate reader (EGG-Wallac). The concentration that produces 50% inhibition of the enzyme reaction is calculated from three independent experiments. Only the values that fall within the linear part of the sigmoid curve are used for the linear regression analysis.

Data set [2] relates to MIA PaCa-2 (human pancreatic carcinoma cells). The experiment in a line: Anti-proliferative activity, MIA PaCa-2 cells (WST1 colorimetric test). The class given is cell-based. As to conditions: MIA PaCa-2, 96 h, 96 hours treatment, up to 10 μM, nested upper bounds, read-out: IC50 for proliferation of the MIA PaCa-2 cell lines. The protocol: (§1) ii) Characterisation of Anti-Proliferative Activity:
(§2) By way of an example, the effect of treating two human cell lines MIA PaCa-2 and DU 145 with the compounds of the examples described hereinbefore will be studied. The cell lines DU 145 (human prostate carcinoma cells) and MIA PaCa-2 (human pancreatic carcinoma cells) were obtained from the American Tissue Culture Collection (Rockville, Md., USA). A 96-well plate was inoculated on day 0 with cells in 80 μl of Dulbecco's modified Eagle's medium (Gibco-Brl, Cergy-Pontoise, France) with 10% heat-inactivated foetal calf serum (Gibco-Brl, Cergy-Pontoise, France), 50,000 units/l of penicillin and 50 mg/l of streptomycin (Gibco-Brl, Cergy-Pontoise, France) and 2 mM of glutamine (Gibco-Brl, Cergy-Pontoise, France). The cells were treated on day 1 for 96 hours with increasing concentrations of each test compound up to 10 μM. At the end of this period, cell proliferation is quantified by means of a colorimetric test based on cleavage of the tetrazolium salt WST1 by the mitochondrial dehydrogenases in the viable cells, resulting in formation of formazan (Boehringer Mannheim, Meylan, France). These tests are performed in duplicate with 8 determinations per concentration tested. For each test compound, the values within the linear part of the sigmoid curve were subjected to linear regression analysis and used to estimate the IC50 inhibitory concentration. The products are solubilised in dimethylsulfoxide (DMSO) at a concentration of 10^−2 M and used in culture with a final DMSO concentration of 0.1%.
For orientation: Tetrazolium assays rely on reduction of a dye to a coloured formazan, in cell work by metabolically active cells.

For data set [3], the system named is DU 145 (human prostate carcinoma cells). The experiment in a line: Anti-proliferative activity, DU 145 cells (WST1 colorimetric test). The class given is cell-based. As to conditions: DU-145, 96 h, 96 hours treatment, up to 10 μM, nested upper bounds, read-out: IC50 for proliferation of the DU 145 cell lines. As to the method: as §1, §2

`O=c1c(NCCNc2cc(N3CCCC3)nc(N3CCCC3)n2)c(NCc2ccc(Cl)cc2)c1=O` [Example 5, 3-[(4-chlorobenzyl)amino]-4-({2-[(2,6-dipyrrolidin-1-ylpyrimidin-4-yl)amino]ethyl}amino)cyclobut-3-ene-1,2-dione]: the melting point (commonly the temperature of the solid-liquid transition) was in the range of 246 to 248 °C. Besides, in data set [1], the IC50 was ≤ 1 µM. Also, the IC50 in data set [2] is ≤ 10 µM. In addition, the IC50 in data set [3] is ≤ 10 µM.
Regarding `O=c1c(NCCNc2cc(N3CCCC3)nc(N3CCCC3)n2)c(Nc2ccc(-c3ccccc3)cc2)c1=O` [Example 11, 3-(biphenyl-4-ylamino)-4-({2-[(2,6-dipyrrolidin-1-ylpyrimidin-4-yl)amino]ethyl}amino)cyclobut-3-ene-1,2-dione], the IC50 in data set [1] is ≤ 5 µM; in data set [3], ≤ 10 µM.
As for `CC(=O)Nc1ccc(Nc2c(NCCNc3cc(N4CCCC4)nc(N4CCCC4)n3)c(=O)c2=O)cc1` [Example 13, N-(4-{[2-({2-[(2,6-dipyrrolidin-1-ylpyrimidin-4-yl)amino]ethyl}amino)-3,4-dioxocyclobut-1-en-1-yl]amino}phenyl)acetamide], the melting point was in the range of 263 to 265 °C. The IC50 in data set [1] is ≤ 5 µM.
In turn, `COc1cc(Nc2c(NCCNc3cc(N4CCCC4)nc(N4CCCC4)n3)c(=O)c2=O)cc(OC)c1OC` [Example 14, 3-({2-[(2,6-dipyrrolidin-1-ylpyrimidin-4-yl)amino]ethyl}amino)-4-[(3,4,5-trimethoxyphenyl)amino]cyclobut-3-ene-1,2-dione] displayed a melting point of 154 to 156 °C. In addition, the IC50 in data set [1] was ≤ 5 µM. The IC50 in data set [2] is ≤ 10 µM.
`O=c1c(NCCNc2cc(N3CCCC3)nc(N3CCCC3)n2)c(Nc2cc(F)cc(F)c2)c1=O` [Example 15, 3-[(3,5-difluorophenyl)amino]-4-({2-[(2,6-dipyrrolidin-1-ylpyrimidin-4-yl)amino]ethyl}amino)cyclobut-3-ene-1,2-dione] showed a melting point of 192 to 194 °C. The IC50 in data set [1] is ≤ 1 µM. Further, the IC50 in data set [3] was ≤ 10 µM.
Regarding `O=c1c(NCCNc2cc(N3CCCC3)nc(N3CCCC3)n2)c(Nc2ccccc2Cl)c1=O` [Example 16, 3-[(2-chlorophenyl)amino]-4-({2-[(2,6-dipyrrolidin-1-ylpyrimidin-4-yl)amino]ethyl}amino)cyclobut-3-ene-1,2-dione], the melting point was in the range of 179 to 181 °C. In addition, the IC50 in data set [1] was ≤ 1 µM. Besides, in data set [2], the IC50 is ≤ 10 µM.
For the molecule `CN(Cc1ccc(Nc2c(NCCNc3cc(N4CCCC4)nc(N4CCCC4)n3)c(=O)c2=O)cc1)C(=O)OC(C)(C)C` [Example 21, tert-butyl (4-{[2-({2-[(2,6-dipyrrolidin-1-ylpyrimidin-4-yl)amino]ethyl}amino)-3,4-dioxocyclobut-1-en-1-yl]amino}benzyl)methylcarbamate], the results for the IC50 in data set [1], in data set [2] and in data set [3] were ≤ 1 µM, ≤ 10 µM and ≤ 10 µM, respectively.
As for `CNCc1ccc(Nc2c(NCCNc3cc(N4CCCC4)nc(N4CCCC4)n3)c(=O)c2=O)cc1.Cl` [Example 22, 3-({2-[(2,6-dipyrrolidin-1-ylpyrimidin-4-yl)amino]ethyl}amino)-4-({4-[(methylamino)methyl]phenyl}amino)cyclobut-3-ene-1,2-dione hydrochloride], the melting point was > 260 °C. The IC50 in data set [1] is ≤ 5 µM. Also, in data set [2], the IC50 was ≤ 10 µM.
For the molecule `CCCc1ccc(Nc2c(NCCNc3cc(N4CCCC4)nc(N4CCCC4)n3)c(=O)c2=O)cc1` [Example 24, 3-({2-[(2,6-dipyrrolidin-1-ylpyrimidin-4-yl)amino]ethyl}amino)-4-[(4-propylphenyl)amino]cyclobut-3-ene-1,2-dione], the IC50 in data set [1] is ≤ 1 µM; in data set [2], ≤ 10 µM; in data set [3] it was ≤ 10 µM.
As for `O=c1c(NCCNc2cc(N3CCCC3)nc(N3CCCC3)n2)c(Nc2ccc(O)cc2)c1=O` [Example 27, 3-({2-[(2,6-dipyrrolidin-1-ylpyrimidin-4-yl)amino]ethyl}amino)-4-[(4-hydroxyphenyl)amino]cyclobut-3-ene-1,2-dione], the melting point is > 260 °C. Besides, in data set [1], the IC50 is ≤ 15 µM.
`Cl.NCc1ccc(Nc2c(NCCNc3cc(N4CCCC4)nc(N4CCCC4)n3)c(=O)c2=O)cc1` [Example 28, 3-{[4-(aminomethyl)phenyl]amino}-4-({2-[(2,6-dipyrrolidin-1-ylpyrimidin-4-yl)amino]ethyl}amino)cyclobut-3-ene-1,2-dione hydrochloride] yielded a melting point of 224 to 226 °C. Also, the IC50 in data set [1] is ≤ 5 µM. Moreover, the IC50 in data set [2] is ≤ 10 µM.
On to `Cl.NCCc1ccc(Nc2c(NCCNc3cc(N4CCCC4)nc(N4CCCC4)n3)c(=O)c2=O)cc1` [Example 30, 3-{[4-(2-aminoethyl)phenyl]amino}-4-({2-[(2,6-dipyrrolidin-1-ylpyrimidin-4-yl)amino]ethyl}amino)cyclobut-3-ene-1,2-dione hydrochloride], for which the melting point fell in the range of 250 to 252 °C. Further, the IC50 in data set [1] was ≤ 5 µM.
On to `O=c1c(NCCNc2cc(N3CCCC3)nc(N3CCCC3)n2)c(Nc2ccc(C(F)(F)F)cc2)c1=O` [Example 32, 3-({2-[(2,6-dipyrrolidin-1-ylpyrimidin-4-yl)amino]ethyl}amino)-4-{[4-(trifluoromethyl)phenyl]amino}cyclobut-3-ene-1,2-dione], for which the melting point is > 250 °C. Further, the IC50 in data set [1] is ≤ 1 µM. Also, in data set [3], the IC50 is ≤ 10 µM.
As to `O=c1c(NCCNc2cc(N3CCCC3)nc(N3CCCC3)n2)c(Nc2ccc([N+](=O)[O-])cc2)c1=O` [Example 34, 3-({2-[(2,6-dipyrrolidin-1-ylpyrimidin-4-yl)amino]ethyl}amino)-4-[(4-nitrophenyl)amino]cyclobut-3-ene-1,2-dione], the IC50 was ≤ 1 µM in data set [1] and ≤ 10 µM in data set [3].
Regarding `O=c1c(NCCNc2cc(N3CCCC3)nc(N3CCCC3)n2)c(Nc2ccccc2)c1=O` [Example 35, 3-anilino-4-({2-[(2,6-dipyrrolidin-1-ylpyrimidin-4-yl)amino]ethyl}amino)cyclobut-3-ene-1,2-dione], the IC50 in data set [1] was ≤ 1 µM; in data set [2] it was ≤ 10 µM.
`O=c1c(NCCNc2cc(N3CCCC3)nc(N3CCCC3)n2)c(Nc2ccc(Cl)c(F)c2)c1=O` [Example 36, 3-[(4-chloro-3-fluorophenyl)amino]-4-({2-[(2,6-dipyrrolidin-1-ylpyrimidin-4-yl)amino]ethyl}amino)cyclobut-3-ene-1,2-dione]: the IC50 was ≤ 1 µM in data set [1] and ≤ 10 µM in data set [3].
